Here are results for 3 substances from patent US9481719B2, “Recombinant production of peptides” (BASF SE, priority 2009, dated 2016).

No end group written: not given here.

One experiment concerns Escherichia coli. Conditions: compared to the starting fusion; cited from earlier work.
The subject of another experiment is Bacillus subtilis. As to conditions: compared to the starting fusion; cited from earlier work.
The subject of a further experiment is E. coli B. Kind of experiment: Growth inhibition of E. coli B cultures in LB medium (optical density after 24 h). It is filed as cell-based. As for the experimental part:
Bacterial growth was monitored by measuring the optical density after 24 h. […] For this, said carboxyl groups were activated with 1-ethyl-3-(3-dimethylaminopropyl)carbodiimide hydrochloride and N-hydroxy-sulfosuccinimide, and amidated by subsequent addition of ammonia.

For “KWKLFKKIPKFLHLAKKF (P18 Peptide) [SEQ ID NO:6, cecropin A-magainin 2 fusion peptide development described by Shin et al. 1999]”, in the experiment on Escherichia coli, the “antibacterial activity with respect to Escherichia coli” value is given as “not adversely affected”. In the experiment on Bacillus subtilis, the “antibacterial activity with respect to Bacillus subtilis” value is “not adversely affected”. For the substance “amidated P18 peptide: P18 peptide (SEQ ID NO: 23) whose C-terminal carboxyl group is amidated (PGKWKLFKKIPKFLHLAKKFG-NH2)”, in the experiment on E. coli B (C-terminal carboxyl group amidated (EDC / N-hydroxy-sulfosuccinimide, ammonia)), the “antimicrobial activity after amidating the C-terminal carboxyl group, relative to non-amidated P18” value is listed as “improve the antimicrobial activity further”. On to “PGKWKLFKKIPKFLHLAKKFG (P18 Peptide) [antimicrobial peptide released by acidic cleavage from a recombinant repetitive precursor protein]”, for which, in the experiment with E. coli B (E. coli B in LB medium, starting optical density 0.1 at 600 nm, shaking at 37° C., 24 h), the “peptide concentration for complete inhibition of growth (optical density at 600 nm after 24 h<0.15)” value is listed as at least 31 ppm.
